Experimental data as given in ChEMBL document CHEMBL3044925, “Synthesis of piperazino and morpholino derivatives of aryloxypropane with potential analgesic and possible antimigraine activities” (Med Chem Res, 2011).

Legend:
Mus musculus [1] = assay: […] activity in ip dosed Mus musculus MFI (mouse) assessed as inhibition of PBQ-induced writhing administered 1.5 hr prior to PBQ-challenge measured after 10 min; type: functional; conditions: read-out: MED
Mus musculus [2] = assay: Neurotoxicity against Mus musculus MFI (mouse) assessed as tremors at 75 mg/kg, ip; type: toxicity, organism-based; set-up: dose 75 mg/kg, route intraperitoneal; conditions: in vivo
Mus musculus [3] = assay: Neurotoxicity against Mus musculus MFI (mouse) assessed as irritability at 75 mg/kg, ip; type: toxicity, organism-based; set-up: dose 75 mg/kg, route intraperitoneal; conditions: in vivo
Mus musculus [4] = assay: Neurotoxicity against Mus musculus MFI (mouse) assessed as effect on respiration at 75 mg/kg, ip; type: toxicity, organism-based; set-up: dose 75 mg/kg, route intraperitoneal; conditions: in vivo
Mus musculus [5] = assay: Neurotoxicity against Mus musculus MFI (mouse) assessed as eye protrusion at 75 mg/kg, ip; type: toxicity, organism-based; set-up: dose 75 mg/kg, route intraperitoneal; conditions: in vivo
Mus musculus [6] = assay: Neurotoxicity against Mus musculus MFI (mouse) assessed as skeletal muscle incoordination at 75 mg/kg, ip; type: toxicity, organism-based, Muscle tissue; set-up: dose 75 mg/kg, route intraperitoneal; conditions: in vivo
Mus musculus [7] = assay: Neurotoxicity against Mus musculus MFI (mouse) assessed as hair erection at 75 mg/kg, ip; type: toxicity, organism-based; set-up: dose 75 mg/kg, route intraperitoneal; conditions: in vivo
Mus musculus [8] = assay: Neurotoxicity against Mus musculus MFI (mouse) assessed as tail erection at 75 mg/kg, ip; type: toxicity, organism-based; set-up: dose 75 mg/kg, route intraperitoneal; conditions: in vivo
Mus musculus [9] = assay: Neurotoxicity against Mus musculus MFI (mouse) assessed as epilepsy at 75 mg/kg, ip; type: toxicity, organism-based; set-up: dose 75 mg/kg, route intraperitoneal; conditions: in vivo
Mus musculus [10] = assay: Neurotoxicity against Mus musculus MFI (mouse) assessed as excitation at 75 mg/kg, ip; type: toxicity, organism-based; set-up: dose 75 mg/kg, route intraperitoneal; conditions: in vivo
Mus musculus [11] = assay: Neurotoxicity against Mus musculus MFI (mouse) assessed as tremors at 110 mg/kg, ip; type: toxicity, organism-based; set-up: dose 110 mg/kg, route intraperitoneal; conditions: in vivo
Mus musculus [12] = assay: Neurotoxicity against Mus musculus MFI (mouse) assessed as muscle twitching at 110 mg/kg, ip; type: toxicity, organism-based, Muscle tissue; set-up: dose 110 mg/kg, route intraperitoneal; conditions: in vivo
Mus musculus [13] = assay: Neurotoxicity against Mus musculus MFI (mouse) assessed as irritability at 110 mg/kg, ip; type: toxicity, organism-based; set-up: dose 110 mg/kg, route intraperitoneal; conditions: in vivo
Mus musculus [14] = assay: Neurotoxicity against Mus musculus MFI (mouse) assessed as eye protrusion at 110 mg/kg, ip; type: toxicity, organism-based; set-up: dose 110 mg/kg, route intraperitoneal; conditions: in vivo
Mus musculus [15] = assay: Neurotoxicity against Mus musculus MFI (mouse) assessed as effect on respiration at 110 mg/kg, ip; type: toxicity, organism-based; set-up: dose 110 mg/kg, route intraperitoneal; conditions: in vivo
Mus musculus [16] = assay: Neurotoxicity against Mus musculus MFI (mouse) assessed as skeletal muscle incoordination at 110 mg/kg, ip; type: toxicity, organism-based, Muscle tissue; set-up: dose 110 mg/kg, route intraperitoneal; conditions: in vivo
Mus musculus [17] = assay: Neurotoxicity against Mus musculus MFI (mouse) assessed as hair erection at 110 mg/kg, ip; type: toxicity, organism-based; set-up: dose 110 mg/kg, route intraperitoneal; conditions: in vivo
Mus musculus [18] = assay: Neurotoxicity against Mus musculus MFI (mouse) assessed as tail erection at 110 mg/kg, ip; type: toxicity, organism-based; set-up: dose 110 mg/kg, route intraperitoneal; conditions: in vivo
Mus musculus [19] = assay: Neurotoxicity in ip dosed Mus musculus MFI (mouse); type: toxicity, organism-based; conditions: in vivo
Mus musculus [20] = assay: Neurotoxicity against Mus musculus MFI (mouse) assessed as muscle twitching at 40 mg/kg, ip; type: toxicity, organism-based, Muscle tissue; set-up: dose 40 mg/kg, route intraperitoneal; conditions: in vivo
Mus musculus [21] = assay: Neurotoxicity against Mus musculus MFI (mouse) assessed as tremors at 40 mg/kg, ip; type: toxicity, organism-based; set-up: dose 40 mg/kg, route intraperitoneal; conditions: in vivo
Mus musculus [22] = assay: Neurotoxicity against Mus musculus MFI (mouse) assessed as irritability at 40 mg/kg, ip; type: toxicity, organism-based; set-up: dose 40 mg/kg, route intraperitoneal; conditions: in vivo
Mus musculus [23] = assay: Neurotoxicity against Mus musculus MFI (mouse) assessed as effect on respiration at 40 mg/kg, ip; type: toxicity, organism-based; set-up: dose 40 mg/kg, route intraperitoneal; conditions: in vivo
Mus musculus [24] = assay: Neurotoxicity against Mus musculus MFI (mouse) assessed as eye protrusion at 40 mg/kg, ip; type: toxicity, organism-based; set-up: dose 40 mg/kg, route intraperitoneal; conditions: in vivo
Mus musculus [25] = assay: Neurotoxicity against Mus musculus MFI (mouse) assessed as skeletal muscle incoordination at 40 mg/kg, ip; type: toxicity, organism-based, Muscle tissue; set-up: dose 40 mg/kg, route intraperitoneal; conditions: in vivo
Mus musculus [26] = assay: Neurotoxicity against Mus musculus MFI (mouse) assessed as hair erection at 40 mg/kg, ip; type: toxicity, organism-based; set-up: dose 40 mg/kg, route intraperitoneal; conditions: in vivo
Mus musculus [27] = assay: Neurotoxicity against Mus musculus MFI (mouse) assessed as tail erection at 40 mg/kg, ip; type: toxicity, organism-based; set-up: dose 40 mg/kg, route intraperitoneal; conditions: in vivo
Mus musculus [28] = assay: Neurotoxicity against Mus musculus MFI (mouse) assessed as epilepsy at 40 mg/kg, ip; type: toxicity, organism-based; set-up: dose 40 mg/kg, route intraperitoneal; conditions: in vivo
Mus musculus [29] = assay: Neurotoxicity against Mus musculus MFI (mouse) assessed as excitation at 40 mg/kg, ip; type: toxicity, organism-based; set-up: dose 40 mg/kg, route intraperitoneal; conditions: in vivo
Mus musculus [30] = assay: Neurotoxicity against Mus musculus MFI (mouse) assessed as muscle twitching at 75 mg/kg, ip; type: toxicity, organism-based, Muscle tissue; set-up: dose 75 mg/kg, route intraperitoneal; conditions: in vivo
Mus musculus [31] = assay: Neurotoxicity against Mus musculus MFI (mouse) assessed as epilepsy at 110 mg/kg, ip; type: toxicity, organism-based; set-up: dose 110 mg/kg, route intraperitoneal; conditions: in vivo
Mus musculus [32] = assay: Neurotoxicity against Mus musculus MFI (mouse) assessed as excitation at 110 mg/kg, ip; type: toxicity, organism-based; set-up: dose 110 mg/kg, route intraperitoneal; conditions: in vivo
Mus musculus [33] = assay: […] activity in Mus musculus MFI (mouse) assessed as inhibition of PBQ-induced writhing at 40 mg/kg, ip administered 1.5 hr prior to PBQ-challenge measured after 10 min relative to aspirin; type: functional; conditions: route intraperitoneal
Mus musculus [34] = assay: […] activity in Mus musculus MFI (mouse) assessed as inhibition of PBQ-induced writhing at 75 mg/kg, ip administered 1.5 hr prior to PBQ-challenge measured after 10 min relative to aspirin; type: functional; conditions: route intraperitoneal
Mus musculus [35] = assay: […] activity in Mus musculus MFI (mouse) assessed as inhibition of PBQ-induced writhing at 110 mg/kg, ip administered 1.5 hr prior to PBQ-challenge measured after 10 min relative to aspirin; type: functional; conditions: route intraperitoneal

CC(CN1CCN(C)CC1)Oc1c(Br)cccc1Br.O=C(O)C(=O)O (racemic)
minimal effective dose (Mus musculus [1]): 40 mg/kg
Activity (Mus musculus [2]): Toxic
Activity (Mus musculus [3]): Toxic
Activity (Mus musculus [4]): Toxic
Activity (Mus musculus [5]): Toxic
Activity (Mus musculus [6]): Toxic
Activity (Mus musculus [7]): Toxic
Activity (Mus musculus [8]): Toxic
Activity (Mus musculus [9]): Toxic
Activity (Mus musculus [10]): Toxic
Activity (Mus musculus [11]): Toxic
Activity (Mus musculus [12]): Toxic
Activity (Mus musculus [13]): Toxic
Activity (Mus musculus [14]): Toxic
Activity (Mus musculus [15]): Toxic
Activity (Mus musculus [16]): Toxic
Activity (Mus musculus [17]): Toxic
Activity (Mus musculus [18]): Toxic
MTC (Mus musculus [19]): 75 mg/kg
Activity (Mus musculus [20]): Toxic
Activity (Mus musculus [21]): Toxic
Activity (Mus musculus [22]): Toxic
Activity (Mus musculus [23]): Toxic
Activity (Mus musculus [24]): Toxic
Activity (Mus musculus [25]): Toxic
Activity (Mus musculus [26]): Toxic
Activity (Mus musculus [27]): Toxic
Activity (Mus musculus [28]): Toxic
Activity (Mus musculus [29]): Toxic
Activity (Mus musculus [30]): Toxic
Activity (Mus musculus [31]): Toxic
Activity (Mus musculus [32]): Toxic
inhibition in vivo at 40 mg/kg (Mus musculus [33]): 12.5%
inhibition in vivo at 75 mg/kg (Mus musculus [34]): 37.5%
inhibition in vivo at 110 mg/kg (Mus musculus [35]): 100%
